Reference: publication PMC3381009 (Journal of Medicinal Chemistry, 2012)

Assays:
[1] = target: Mycobacterium tuberculosis glutamine synthetase (MtGS) (Mycobacterium tuberculosis, UniProt P9WN39); experiment: MtGS inhibition screening and IC50 determination; type: biochemical; details: for inhibitory activity in the MtGS enzymatic assay (in words): inhibition screening at 25 μM; for fold increase of affinity/potency (IC50) compared to 7a: MtGS IC50 ratio vs 7a
MtGS = details: read-out: IC50 obtained in the HTS study; HTS assay conditions; cited from earlier work

Chain of Mycobacterium tuberculosis glutamine synthetase (MtGS) (P9WN39 whole entry): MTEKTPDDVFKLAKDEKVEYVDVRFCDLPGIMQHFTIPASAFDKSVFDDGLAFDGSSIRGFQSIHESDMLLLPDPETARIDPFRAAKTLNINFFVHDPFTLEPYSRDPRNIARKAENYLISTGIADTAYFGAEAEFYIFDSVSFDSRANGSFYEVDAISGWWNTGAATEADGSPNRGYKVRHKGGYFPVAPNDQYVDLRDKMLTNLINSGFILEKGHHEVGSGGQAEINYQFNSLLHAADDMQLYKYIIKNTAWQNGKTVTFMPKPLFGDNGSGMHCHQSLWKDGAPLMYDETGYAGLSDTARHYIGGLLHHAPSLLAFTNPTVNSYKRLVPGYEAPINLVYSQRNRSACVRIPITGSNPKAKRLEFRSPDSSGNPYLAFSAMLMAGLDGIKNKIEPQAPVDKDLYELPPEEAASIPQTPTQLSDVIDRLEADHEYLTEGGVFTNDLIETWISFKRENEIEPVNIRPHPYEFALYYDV

SMILES	inhibitory activity in the MtGS enzymatic assay (in words) [1]	other results
COc1ccc2cc(-c3nc(COCc4ccccc4)[nH]c3-c3ccncc3)ccc2c1 [Compound 7h]	did not show any inhibitory activity	–
COc1ccc2cc(-c3nc[nH]c3-c3ccncc3)ccc2c1 [Compound 7g]	inactive	–
COc1ccc2cc(-c3nc(CO)[nH]c3-c3ccncc3)ccc2c1 [Compound 7i]	inactive	–
COc1ccc2cc(-c3nc(C(C)(C)C)[nH]c3-c3ccncc3)ccc2c1 [Compound 7a]	–	fold higher IC50 than the IC50 obtained in the HTS study [1]: 30 fold; IC50 (MtGS): 100 nM
COc1ccc2cc(-c3nc(C(C)(C)C)[nH]c3-c3ccnc(N(C)C)c3)ccc2c1 [Compound 11c]	inactive	–
COc1ccc2cc(-c3nc(C(C)(C)C)[nH]c3-c3ccnc(N)c3)ccc2c1 [Compound 11a, 4-(2-tert-Butyl-4-(6-methoxynaphthalen-2-yl)-1H-imidazol-5-yl)pyridin-2-amine]	–	fold increase of affinity/potency (IC50) compared to 7a [1]: over 60 fold
COc1ccc2cc(-c3nc(C)[nH]c3-c3ccncc3)ccc2c1 [Compound 7f]	inactive	–
COc1ccc2cc(-c3nc(C(C)(C)C)[nH]c3-c3ccnc(F)c3)ccc2c1 [Compound 10]	–	fold increase of affinity/potency (IC50) compared to 7a [1]: ~2.5 fold
CNc1cc(-c2[nH]c(C(C)(C)C)nc2-c2ccc3cc(OC)ccc3c2)ccn1 [Compound 11b]	–	fold loss in activity compared to 11a [1]: 100 fold
